Test results taken from patent US20110014644A1, “METHODS FOR PREDICTING A CANCER PATIENT'S RESPONSE TO ANTIFOLATE CHEMOTHERAPY” (Precision Therapeutics, Inc., priority 2009, published 2011).

Assays:
A549 cells = assay: ChemoFx live cell chemoresponse assay on A549 (wash-before-treatment, folic acid supplementation); type: cell-based, human
Description: The ChemoFx™ live cell chemoresponse assay was performed on 65 patient specimens and the cell line A549. The cells were treated with a 10-dose range of pemetrexed for 72 hours before DAPI-nuclear staining and counting. AUC (Area Under Curve) values were calculated and additional statistical analysis was performed on the resulting dose-response curves. Folic Acid supplementation experiments were conducted. Pure folic acid was purchased from Sigma Aldrich, filtered, and prepared in a 100× concentration using RPMI media. The concentrate was added to RPMI media so that the final concentration of folic acid ranged between 1.5 mg/L and 500 mg/L. The cell line A549 was plated and treated according to the ChemoFx™ assay in the RPMI media containing increasing concentrations of folic acid. A control was also plated and treated at the same time. In order to determine whether or not removal of excess folic acid from growth media affected the outcome of the chemoresponse assay, a Wash Before Treatment (WBT) step was included. Briefly, A549 cells were plated in 5% BEGM growth media and were cultured to the desired confluence. The growth media was then aspirated and the cells washed with 70 μL of PBS. After removal of the PBS, 70 μL of 5% RPMI+EGF (EGF concentration of 10 ng/mL) treatment media was added to the each treatment well. Following the addition of the treatment media, 30 μL of the treatment media was removed leaving a total volume of 40 μL of treatment media per well. Pemetrexed was then prepared using serial dilutions in the treatment media and was applied to the treatment wells. All aspirations and additions of media and wash solutions was performed by an automated liquid handler to avoid harsh pipetting that might dissociate/disrupt cells.

[1] = tested on: primary cultures of NSCLC specimens; assay: ChemoFx live cell chemoresponse assay on primary cultures of patient lung cancer specimens; type: cell-based, human; conditions: 65 primary cultures, single agent, 72 hours
Description: The ChemoFx™ live cell chemoresponse assay was performed on 65 patient specimens and the cell line A549. The cells were treated with a 10-dose range of pemetrexed for 72 hours before DAPI-nuclear staining and counting. AUC (Area Under Curve) values were calculated and additional statistical analysis was performed on the resulting dose-response curves.
The area under the dose-response curve (AUC) represents the survival fraction of cells in the presence of drug at each of the 10 increasing dose concentrations. There can be certain circumstances when dose-response curves of differing shapes share similar AUCs. Therefore, as a better reflection of sensitivity to drug treatment, an adjusted area under the curve (aAUC) was calculated according to the following formulas. First, local slope (Sd) at each dose point was calculated based on Sd=(CId-1−CId)/unit of dose. Second, slope weight (Wd) at each dose point was calculated based on Wd=1−Sd. Finally, aAUC was computed based on aAUC=Σ Wd CId, where d=1 . . . 10. Mi Z, et al. (2008) Anticancer Res 28: 1733-1740.
Adjusted areas under the curve (aAUC) were calculated for each dose-response curve. The assay results were classified as responsive (R; assay score≦5.34648.0), intermediate responsive (IR; assay score 5.3465-6.5372) or non-responsive (NR; assay score≧6.5373).

[2] = tested on: non-small cell lung carcinoma (NSCLC); conditions: second-line treatment in the clinical setting, NSCLC patients (Hanna 2004); cited from earlier work

Nc1nc2[nH]cc(CCc3ccc(C(=O)N[C@@H](CCC(=O)O)C(=O)O)cc3)c2c(=O)[nH]1 [pemetrexed, Pemetrexed]
effect of folic acid on observed activity (A549 cells; A549, RPMI media with folic acid 1.5 mg/L to 500 mg/L, FIG. 3): could be reversed with folic acid treatment | effect of wash-before-treatment (WBT) protocol on in vitro response (A549 cells; A549, with WBT, 5% BEGM to 5% RPMI+EGF, FIG. 1): significantly improved the in vitro response | response curve without WBT (A549 cells; A549, without WBT (5% BEGM control)): a typical ChemoFx™ response curve was not obtained | sensitivity of A549 to treatment (A549 cells; A549 cultured in 5% BEGM, treated in 5% RPMI+EGF, FIG. 1): good positive control for sensitivity | share of primary cultures with intermediate response (IR) ([1]; 2.24 nM to 586 μM, aAUC assay score 5.3465-6.5372): 9.2% | share of primary cultures non-responsive (NR) ([1]; 2.24 nM to 586 μM, aAUC assay score ≧6.5373): 84.6% | share of primary cultures that responded (responsive, R) ([1]; ten serial dilutions 2.24 nM to 586 μM, aAUC assay score ≦5.34648.0): 6.2% | objective response rate (overall population response) [2]: 9.1%
